For data set [1] the following is noted: in vivo; cited from earlier work.
Data set [2] in a line: Phase 1 clinical dose escalation trial with paclitaxel: safety, dose-limiting toxicity. The format is in vivo, human. The protocol: (§1) Paclitaxel and compound I in the form of hydrochloride were administered to cancer patients and evaluated for safety and efficacy. This study was conducted targeting solid cancer patients for whom a standard treatment is not effective, or a treatment is not present. Cancers found to affect the patients included the carcinoma shown in FIG. 3 (urothelial cancer, adrenal cancer, pancreatic cancer, colon cancer, cervical cancer, bile duct cancer, hepatocellular carcinoma, prostate cancer, head and neck cancer, ovarian cancer, gallbladder cancer, non-small cell lung cancer, parotid gland cancer, breast cancer, and fallopian tube cancer). This study also corresponds to a phase 1 clinical dose escalation trial for mainly evaluating safety and determining a recommended dose (RD), that can be administered safely without a concerned side effect in a phase 1 clinical expansion cohort test to be performed on a carcinoma basis.
(§2) A weekly administration regimen was adopted to paclitaxel, in which paclitaxel was administered once per week for 3 weeks, followed by cessation of the drug for 1 week. This administration method is a standard paclitaxel administration regimen and is widely used in clinical practice. On the other hand, the compound I was administered twice per day for 2 or 3 or 4 days from the same day as paclitaxel administration or 1 day after paclitaxel administration; this regimen was performed for 3 weeks together with the weekly paclitaxel administration; and week 4 was set to cessation of the compound I, in accordance with the cessation of paclitaxel. Each administration schedule (dose level) was evaluated from results of administration to 2 to 7 patients.

Data set [3] concerns solid cancer. Description: Phase 1 clinical dose escalation trial with paclitaxel: tumor reduction effect (RECIST). The class given is in vivo, human. Conditions: for cases in which a tumor reduction effect was observed: equal dose per day. As to the method:
as §1
In addition to the evaluation of safety, a therapeutic effect on tumor was also evaluated, if possible. The therapeutic effect on tumor was determined as a tumor reduction effect by comprehensive evaluation of target lesions (lesions equal to or larger than a measurable size according to a slice width by CT, etc.) and non-target lesions (all lesions other than the target lesions) with reference to the RECIST evaluation method (Journal of the National Cancer Institute, 2000, Vol 92, No. 3, 205-216J). The dose of the compound I is a weight based on free form.
In this study, PR (partial response) refers to 30% or more decrease in the sum of the major axis of target lesions, compared to that before administration. PD (progressive disease) refers to 20% or more relative increase in the sum of the major axis of target lesions, compared to the smallest sum of the major axis recorded after the start of the study, 5 mm or more absolute increase in the sum of the major axis, or apparent exacerbation of existing non-target lesions or a new lesion. SD (stable disease) refers to insufficient tumor reduction to qualify for PR and insufficient increase to qualify for PD, without progression and exacerbation of tumor, compared to the smallest sum of the major axis recorded after the start of the study.
as §2

Data set [4] deals with T1, Aurora A (Homo sapiens, UniProt O14965).
T1 sequence (O14965 1-403): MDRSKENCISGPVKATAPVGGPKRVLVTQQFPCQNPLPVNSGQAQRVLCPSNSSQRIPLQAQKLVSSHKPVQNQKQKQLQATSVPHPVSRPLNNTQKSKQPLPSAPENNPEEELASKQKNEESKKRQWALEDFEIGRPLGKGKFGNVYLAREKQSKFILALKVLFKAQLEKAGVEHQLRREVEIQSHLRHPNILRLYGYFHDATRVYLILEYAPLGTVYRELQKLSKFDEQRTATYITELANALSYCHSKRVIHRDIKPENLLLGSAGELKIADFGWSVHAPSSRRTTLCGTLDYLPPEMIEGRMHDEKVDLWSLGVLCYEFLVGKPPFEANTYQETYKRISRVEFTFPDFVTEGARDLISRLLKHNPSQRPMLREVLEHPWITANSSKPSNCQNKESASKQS
The following applies: cited from earlier work.

Data set [5] relates to tumor. The following applies: rats, 24 hours later MK-5108 orally twice per day for 2 days; cited from earlier work.
Data set [6] has as its system Human-derived uterus cancer cell line HeLa-luc. Kind of data set: Schedule study of combined use of compound I and paclitaxel in HeLa-luc grafted nude rats. The following applies: group 1: paclitaxel 10 mg/kg i.v. on day 1 alone; 5 rats. The format is in vivo. The text has this: Human-derived uterus cancer cell line HeLa-luc (PerkinElmer, Inc.) cells transfected with luciferase gene were subcutaneously grafted at 1×10^7 cells to the right abdomens of nude rats (lineage: F344/NJcl-rnu/rnu, female, distributor: CLEA Japan, Inc.). When the volume of the grafted tumor reached approximately 200 mm^3, the rats were divided into groups each consisting of 5 rats according to stratified randomization such that each group had almost the same tumor volume.
To group 1, paclitaxel (10 mg/kg) alone was intravenously administered on day 1. To groups 2 to 5, paclitaxel was administered and, on the next day, the hydrochloride of the compound I (30 mg/kg, based on free form) obtained in Reference Example 1 was orally administered twice per day for 1 day, 2 days, 3 days or 4 days (Sequential treatment; see FIG. 1). […]
The presence or absence of a therapeutic effect was determined by measuring the major axis and minor axis of tumor with time and calculating a tumor volume (TV), relative tumor volume (RTV) and T/C (%) value (average relative tumor volume ratio of the treatment group to the control group) on day 10 after initiation of administration, according to the following formulas. […]

Data set [7] relates to small-cell lung cancer (SCLC). The following applies: paclitaxel once per week; MLN8237 twice per day for 3 days, 4 days off; cited from earlier work.

Structures are written as SMILES.

Take `Cc1cc(Nc2nc(CC3(C(=O)O)CCN(C(=O)c4cccc(Cl)c4Cl)CC3)ccc2F)n[nH]1` [compound I, 1-(2,3-dichlorobenzoyl)-4-[5-fluoro-6-(5-methyl-1H-pyrazol-3-ylamino)pyridin-2-yl]methyl-4-piperidinecarboxylic acid]: the oral absorbability result in data set [1] is recorded as “excellent in oral absorbability”. The “patients with dose-limiting toxicity (DLT)” value in data set [2] (DL1: paclitaxel 90 mg/m^2/day weekly, compound I 25 mg/dose twice per day for 4 days from same day as paclitaxel, 3 weeks) is “two out of three”; in data set [2] (DL2: paclitaxel 70 mg/m^2/day, compound I for 2 days from 1 day after paclitaxel), “not observed in any of three cases”; in data set [2] (DL7: paclitaxel 80 mg/m^2/day, compound I 100 mg per dose twice per day for 3 days from day following paclitaxel), “two out of three”. The “tolerability determination of the dose level” value in data set [2] (DL1: paclitaxel 90 mg/m^2/day, compound I 25 mg/dose twice per day for 4 days) was “exceed the maximum tolerable dose”; in data set [2] (DL2: paclitaxel 70 mg/m^2/day, compound I for 2 days), “tolerable”; in data set [2] (DL6: paclitaxel 80 mg/m^2/day, compound I 75 mg per dose twice per day for 3 days), “most suitable as the maximally tolerated dose”; in data set [2] (DL7: paclitaxel 80 mg/m^2/day, compound I 100 mg per dose twice per day for 3 days), “exceed the maximum tolerable dose”. Besides, the “patients with grade 3 or higher dose-limiting toxicity” value in data set [2] (DL6: paclitaxel 80 mg/m^2/day, compound I 75 mg per dose twice per day for 3 days from day following paclitaxel) was “not observed in any of seven cases”. Also, the tolerability result in data set [2] (compound I 2 consecutive days, 75 mg per dose, total 300 mg per week, with paclitaxel) is “tolerable without the dose-limiting toxicity”. The “patients in which a tumor reduction effect was observed” value in data set [3] (2 on 5 off schedule, 6 out of 12 patients, with paclitaxel) worked out at 50%; in data set [3] (3 on 4 off schedule, 7 out of 8 patients, with paclitaxel) it was 88%. Further, the “cases that had PR” value in data set [3] (2 on 5 off schedule, one out of 12 cases, with paclitaxel) is given as 8.3%. The “cases that manifested PR” value in data set [3] (3 on 4 off schedule (dose levels 6 and 7), 3 out of 8 cases, with paclitaxel) stood at 38%. For the same compound, the “number of patients with PR (partial response)” value in data set [3] (all dose levels, 22 evaluable cases, combination with paclitaxel) stood at 5. Also, the “cases in which a tumor reduction effect was observed” value in data set [3] (2 on 5 off (dose level 5), 1 out of 3 cases, with paclitaxel) was 33%; in data set [3] (3 on 4 off (dose level 6), 4 out of 5 cases, with paclitaxel), 80%. Moreover, in data set [4], the “Aurora A selective inhibitory activity” value is “excellent”.

Turning to `O=C(O)[C@]1(Cc2cccc(Nc3nccs3)n2)CC[C@@H](Oc2cccc(Cl)c2F)CC1` [MK-5108], in data set [5], the “effect on side effect of docetaxel” value is “without exacerbating the side effect of docetaxel” and the “effect on tumor reduction effect of docetaxel” value is recorded as “tumor reduction effect of docetaxel is enhanced”.

For `CC(=O)O[C@H]1C(=O)[C@@]2(C)[C@H]([C@H](OC(=O)c3ccccc3)[C@]3(O)C[C@H](OC(=O)[C@H](O)[C@@H](NC(=O)c4ccccc4)c4ccccc4)C(C)=C1C3(C)C)[C@]1(OC(C)=O)CO[C@@H]1C[C@@H]2O` [paclitaxel], in data set [6], the “number of CR (complete remission) cases” value was “no CR cases were observed”.

Consider `COc1cc(Nc2ncc3c(n2)-c2ccc(Cl)cc2C(c2c(F)cccc2OC)=NC3)ccc1C(=O)O` [alisertib], for which, in data set [7], the adverse events result is given as “serious adverse events such as neutropenia was found” and the “efficacy in combination with paclitaxel” value is “effective for small-cell lung cancer”.
